Measurements taken from patent US11858941B2, “Heterocyclic and heteroaryl compounds for treating Huntington's disease” (PTC THERAPEUTICS, INC., priority 2018, dated 2024).

Tested on: Endogenous Huntingtin Protein
Assay: Endogenous Huntingtin Protein Assay (Meso Scale Discovery ELISA-based electrochemiluminescence)
Assay type: cell-based
Settings: MSD plates coated with MW1 (expanded polyglutamine) or MAB2166 capture antibody; lysates
Summary of the method: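 MSD electrochemiluminescence sandwich ELISA: MW1 (expanded polyQ) or MAB2166 capture antibody at 1 μg/mL, samples incubated overnight at 4° C. Detection with rabbit monoclonal #5656S then SULFO-TAG anti-rabbit antibody, each 0.25 μg/mL for 1 h at room temperature.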

IC50 [nM]	Compound
1000 to 3000	CC1(C)CC(n2nnc3cc(-c4ccc(-c5ncc[nH]5)cc4O)nnc32)CC(C)(C)N1 [Cpd 91, 5-(1H-imidazol-2-yl)-2-[3-(2,2,6,6-tetramethylpiperidin-4-yl)-3H-[1,2,3]triazolo[4,5-c]pyridazin-6-yl]phenol]
100 to 500	CC1(C)CC(n2nnc3cc(-c4ccc(-c5ccoc5)cc4O)nnc32)CC(C)(C)N1 [Cpd 95, 5-(furan-3-yl)-2-[3-(2,2,6,6-tetramethylpiperidin-4-yl)-3H-[1,2,3]triazolo[4,5-c]pyridazin-6-yl]phenol]
≤ 100	CC1(C)CC(n2nnc3cc(-c4ccc(-c5nccs5)cc4O)nnc32)CC(C)(C)N1 [Cpd 96, 2-[3-(2,2,6,6-tetramethylpiperidin-4-yl)-3H-[1,2,3]triazolo[4,5-c]pyridazin-6-yl]-5-(1,3-thiazol-2-yl)phenol]
≤ 100	CC1(C)CC(n2nnc3cc(-c4ccc(-c5ccnc(N)c5)cc4O)nnc32)CC(C)(C)N1 [Cpd 99, 5-(2-aminopyridin-4-yl)-2-[3-(2,2,6,6-tetramethylpiperidin-4-yl)-3H-[1,2,3]triazolo[4,5-c]pyridazin-6-yl]phenol]
500 to 1000	CC1(C)CC(n2nnc3cc(-c4ccc(-c5ccncc5F)cc4O)nnc32)CC(C)(C)N1 [Cpd 101, 5-(3-fluoropyridin-4-yl)-2-[3-(2,2,6,6-tetramethylpiperidin-4-yl)-3H-[1,2,3]triazolo[4,5-c]pyridazin-6-yl]phenol]
≤ 100	CC1(C)CC(n2nnc3cc(-c4ccc(-c5cncs5)cc4O)nnc32)CC(C)(C)N1 [Cpd 107, 2-[3-(2,2,6,6-tetramethylpiperidin-4-yl)-3H-[1,2,3]triazolo[4,5-c]pyridazin-6-yl]-5-(1,3-thiazol-5-yl)phenol]
≤ 100	Cc1n[nH]cc1-c1ccc(-c2cc3nnn(C4CC(C)(C)NC(C)(C)C4)c3nn2)c(O)c1 [Cpd 108, 5-(3-methyl-1H-pyrazol-4-yl)-2-[3-(2,2,6,6-tetramethylpiperidin-4-yl)-3H-[1,2,3]triazolo[4,5-c]pyridazin-6-yl]phenol]
≤ 100	CC1(C)CC(n2nnc3cc(-c4ccc(-c5c[nH]nc5C#N)cc4O)nnc32)CC(C)(C)N1 [Cpd 109, 4-{3-hydroxy-4-[3-(2,2,6,6-tetramethylpiperidin-4-yl)-3H-[1,2,3]triazolo[4,5-c]pyridazin-6-yl]phenyl}-1H-pyrazole-3-carbonitrile]
100 to 500	CC1(C)CC(n2nnc3cc(-c4ccc(-c5ncc(C#N)s5)cc4O)nnc32)CC(C)(C)N1 [Cpd 110, 2-{3-hydroxy-4-[3-(2,2,6,6-tetramethylpiperidin-4-yl)-3H-[1,2,3]triazolo[4,5-c]pyridazin-6-yl]phenyl}-1,3-thiazole-5-carbonitrile]
≤ 100	CC1(C)CC(n2nnc3cc(-c4ccc(-c5ncco5)cc4O)nnc32)CC(C)(C)N1 [Cpd 111, 5-(1,3-oxazol-2-yl)-2-[3-(2,2,6,6-tetramethylpiperidin-4-yl)-3H-[1,2,3]triazolo[4,5-c]pyridazin-6-yl]phenol]
≤ 100	CC1(C)CC(n2nnc3cc(-c4ccc(-c5c[nH]nn5)cc4O)nnc32)CC(C)(C)N1 [Cpd 112, 2-[3-(2,2,6,6-tetramethylpiperidin-4-yl)-3H-[1,2,3]triazolo[4,5-c]pyridazin-6-yl]-5-(1H-1,2,3-triazol-4-yl)phenol]
≤ 100	COc1cc(-c2ccc(-c3cc4nnn(C5CC(C)(C)NC(C)(C)C5)c4nn3)c(O)c2)ncn1 [Cpd 113, 5-(6-methoxypyrimidin-4-yl)-2-[3-(2,2,6,6-tetramethylpiperidin-4-yl)-3H-[1,2,3]triazolo[4,5-c]pyridazin-6-yl]phenol]
100 to 500	CC1(C)CC(n2nnc3cc(-c4ccc(-c5c[nH]cn5)cc4O)nnc32)CC(C)(C)N1 [Cpd 115, 5-(1H-imidazol-4-yl)-2-[3-(2,2,6,6-tetramethylpiperidin-4-yl)-3H-[1,2,3]triazolo[4,5-c]pyridazin-6-yl]phenol]
≤ 100	CC1(C)CC(n2nnc3cc(-c4ccc(-c5nncs5)cc4O)nnc32)CC(C)(C)N1 [Cpd 116, 2-[3-(2,2,6,6-tetramethylpiperidin-4-yl)-3H-[1,2,3]triazolo[4,5-c]pyridazin-6-yl]-5-(1,3,4-thiadiazol-2-yl)phenol]
1000 to 3000	CC1(C)CC(n2nnc3cc(-c4ccc(-c5ccnc6[nH]ccc56)cc4O)nnc32)CC(C)(C)N1 [Cpd 118, 5-(1H-pyrrolo[2,3-b]pyridin-4-yl)-2-[3-(2,2,6,6-tetramethylpiperidin-4-yl)-3H-[1,2,3]triazolo[4,5-c]pyridazin-6-yl]phenol]
100 to 500	COc1nccc(-c2ccc(-c3cc4nnn(C5CC(C)(C)NC(C)(C)C5)c4nn3)c(O)c2)n1 [Cpd 119, 5-(2-methoxypyrimidin-4-yl)-2-[3-(2,2,6,6-tetramethylpiperidin-4-yl)-3H-[1,2,3]triazolo[4,5-c]pyridazin-6-yl]phenol]
100 to 500	CC1(C)CC(n2nnc3cc(-c4ccc(-c5cnoc5)cc4O)nnc32)CC(C)(C)N1 [Cpd 120, 5-(1,2-oxazol-4-yl)-2-[3-(2,2,6,6-tetramethylpiperidin-4-yl)-3H-[1,2,3]triazolo[4,5-c]pyridazin-6-yl]phenol]
≤ 100	Cn1ncc(-c2ccc(-c3cc4nnn(C5CC(C)(C)NC(C)(C)C5)c4nn3)c(O)c2)c1F [Cpd 121, 5-(5-fluoro-1-methyl-1H-pyrazol-4-yl)-2-[3-(2,2,6,6-tetramethylpiperidin-4-yl)-3H-[1,2,3]triazolo[4,5-c]pyridazin-6-yl]phenol]
1000 to 3000	CCn1ncc(-c2ccc(-c3cc4nnn(C5CC(C)(C)NC(C)(C)C5)c4nn3)c(O)c2)c1F [Cpd 122, 5-(1-ethyl-5-fluoro-1H-pyrazol-4-yl)-2-[3-(2,2,6,6-tetramethylpiperidin-4-yl)-3H-[1,2,3]triazolo[4,5-c]pyridazin-6-yl]phenol]

More lines, now with the values behind:

Compound	IC50 [nM]
CC1(C)CC(n2nnc3cc(-c4ccc(-c5ccn6ccnc6c5)cc4O)nnc32)CC(C)(C)N1 [Cpd 90, 5-(imidazo[1,2-a]pyridin-7-yl)-2-[3-(2,2,6,6-tetramethylpiperidin-4-yl)-3H-[1,2,3]triazolo[4,5-c]pyridazin-6-yl]phenol]	100 to 500
Cn1cnc2cc(-c3cc4nnn(C5CC(C)(C)NC(C)(C)C5)c4nn3)c(O)cc21 [Cpd 92, 1-methyl-5-[3-(2,2,6,6-tetramethylpiperidin-4-yl)-3H-[1,2,3]triazolo[4,5-c]pyridazin-6-yl]-1H-benzimidazol-6-ol]	1000 to 3000
CC1(C)CC(n2nnc3cc(-c4ccc(-c5cc[nH]c(=O)c5)cc4O)nnc32)CC(C)(C)N1 [Cpd 93, 4-{3-hydroxy-4-[3-(2,2,6,6-tetramethylpiperidin-4-yl)-3H-[1,2,3]triazolo[4,5-c]pyridazin-6-yl]phenyl}pyridin-2(1H)-one]	≤ 100
CC1(C)CC(n2nnc3cc(-c4cc5cn[nH]c5cc4O)nnc32)CC(C)(C)N1 [Cpd 94, 5-[3-(2,2,6,6-tetramethylpiperidin-4-yl)-3H-[1,2,3]triazolo[4,5-c]pyridazin-6-yl]-1H-indazol-6-ol]	500 to 1000
Cc1nc2cc(-c3cc4nnn(C5CC(C)(C)NC(C)(C)C5)c4nn3)c(O)cc2[nH]1 [Cpd 97, 2-methyl-5-[3-(2,2,6,6-tetramethylpiperidin-4-yl)-3H-[1,2,3]triazolo[4,5-c]pyridazin-6-yl]-1H-benzimidazol-6-ol]	≤ 100
Cn1cc(-c2ccc(-c3cc4cnn(C5CC(C)(C)NC(C)(C)C5)c4nn3)c(O)c2)cn1 [Cpd 98, 5-(1-methyl-1H-pyrazol-4-yl)-2-[1-(2,2,6,6-tetramethylpiperidin-4-yl)-1H-pyrazolo[3,4-c]pyridazin-5-yl]phenol]	≤ 100
CN(C)c1cc(-c2ccc(-c3cc4nnn(C5CC(C)(C)NC(C)(C)C5)c4nn3)c(O)c2)ccn1 [Cpd 100, 5-[2-(dimethylamino)pyridin-4-yl]-2-[3-(2,2,6,6-tetramethylpiperidin-4-yl)-3H-[1,2,3]triazolo[4,5-c]pyridazin-6-yl]phenol]	1000 to 3000
[2H]C([2H])([2H])n1cc(-c2ccc(-c3cc4cnn(C5CC(C)(C)NC(C)(C)C5)c4nn3)c(O)c2)cn1 [Cpd 102, 5-[1-(^2H3)methyl-1H-pyrazol-4-yl]-2-[1-(2,2,6,6-tetramethylpiperidin-4-yl)-1H-pyrazolo[3,4-c]pyridazin-5-yl]phenol]	≤ 100
CC1(C)CC(n2nnc3cc(-c4ccc(-c5ccc(OC(F)F)cn5)cc4O)nnc32)CC(C)(C)N1 [Cpd 103, 5-[5-(difluoromethoxy)pyridin-2-yl]-2-[3-(2,2,6,6-tetramethylpiperidin-4-yl)-3H-[1,2,3]triazolo[4,5-c]pyridazin-6-yl]phenol]	100 to 500
CNc1cc(-c2ccc(-c3cc4nnn(C5CC(C)(C)NC(C)(C)C5)c4nn3)c(O)c2)ccn1 [Cpd 104, 5-[2-(methylamino)pyridin-4-yl]-2-[3-(2,2,6,6-tetramethylpiperidin-4-yl)-3H-[1,2,3]triazolo[4,5-c]pyridazin-6-yl]phenol]	≤ 100
CC1(C)C=C(c2coc3cc(-c4ccc(-c5cn[nH]c5)cc4O)nnc23)CC(C)(C)N1 [Cpd 105, 5-(1H-pyrazol-4-yl)-2-[7-(2,2,6,6-tetramethyl-1,2,3,6-tetrahydropyridin-4-yl)furo[3,2-c]pyridazin-3-yl]phenol]	≤ 100
CC1(C)CC(n2nnc3cc(-c4ccc(-c5ccnc(OC(F)F)c5)cc4O)nnc32)CC(C)(C)N1 [Cpd 114, 5-[2-(difluoromethoxy)pyridin-4-yl]-2-[3-(2,2,6,6-tetramethylpiperidin-4-yl)-3H-[1,2,3]triazolo[4,5-c]pyridazin-6-yl]phenol]	1000 to 3000
CC1(C)CC(n2nnc3cc(-c4ccc(-c5cn[nH]c5)c5nn[nH]c45)nnc32)CC(C)(C)N1 [Cpd 117, 6-[4-(1H-pyrazol-4-yl)-1H-benzotriazol-7-yl]-3-(2,2,6,6-tetramethylpiperidin-4-yl)-3H-[1,2,3]triazolo[4,5-c]pyridazine]	3000 to 9000
CCOc1cc(-c2ccc(-c3cc4nnn(C5CC(C)(C)NC(C)(C)C5)c4nn3)c(O)c2)ccn1 [Cpd 123, 5-(2-ethoxypyridin-4-yl)-2-[3-(2,2,6,6-tetramethylpiperidin-4-yl)-3H-[1,2,3]triazolo[4,5-c]pyridazin-6-yl]phenol]	3000 to 9000
